What all share (test): NCI anticancer screen, dose series, 48 h
Assay [1] has as its system COLO 205.
Assay [2] relates to EKVX.
Assay [3] deals with HCC 2998.
The test system of assay [4] is HCT-15.
Assay [5] deals with HT-29.
The test system of assay [6] is IGROV-1.
In assay [7] the test system is M14.
Assay [8] deals with MCF7.
The subject of assay [9] is MDA-MB-435.
Assay [10] has as its system NCI/ADR-RES.
The test system of assay [11] is OVCAR-3.
Assay [12] deals with OVCAR-4.
For assay [13], the system named is SF-539.
For assay [14], the system named is SK-MEL-5.
Assay [15] has as its system SN12C.
Assay [16] has as its system SW-620.
Assay [17] deals with NCI-H226.
The test system of assay [18] is UACC-62.
The test system of assay [19] is SNB-75.

SMILES strings stand for the structures.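 Dose response: 5 concentrations. Exposure: 48 h. Format: 96-well plates. Endpoint: linear interpolation; highest concentration if not reached. GI50 = concentration required for 50% inhibition of growth.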 Calls of active or inactive are those of the source. Rule as the data show it: active = GI50 up to about 1.1 µM and inactive = higher. A value given as a limit tells only on which side of the number the result lay.

The record followed here is ChEMBL document CHEMBL1201862, “PubChem BioAssay data set” (2004).

As for `CC1(C)N=C(N)N=C(N)N1c1ccc(CCCCc2ccc(Cl)cc2Cl)cc1`, the GI50 in assay [1] is 0.927 µM (active); in [2], 15.1 µM (inactive); in assay [3], 0.451 µM (active); in assay [4], 5.04 µM; in [5] it was 0.546 µM (active); in assay [6], 0.451 µM (active). Further, the GI50 was 0.914 µM (active) in assay [7]; 0.453 µM (active) in assay [8]; 0.598 µM (active) in assay [9]; 93.5 µM (inactive) in [10]; 0.431 µM (active) in [11]; 0.542 µM (active) in [12]. Further, the GI50 was 0.929 µM (active) in [13], 1.12 µM (inactive) in [14], 0.502 µM (active) in assay [15] and 0.356 µM (active) in [16].

Regarding `Cn1nc2c(c1N)Cc1c(nn(C)c1N)-c1ccccc1-2`, the GI50 was > 100 µM (inactive) in assay [1]; > 100 µM (inactive) in [2]; > 100 µM (inactive) in assay [3]; over 100 µM in assay [4]; > 100 µM (inactive) in assay [5]; > 100 µM (inactive) in assay [6]. For the same molecule, the GI50 in assay [7], in assay [8], in [9], in assay [17], in assay [10] and in assay [11] was > 100 µM (inactive) throughout. The GI50 in assay [12], in assay [13], in assay [14], in assay [15], in assay [16] and in [18] was > 100 µM (inactive) in each case.

Take `CCOC(=O)Nc1cc2c(c(N)n1)N=C(c1ccc(OC)cc1)CN2`: the GI50 in assay [1] was 0.00986 µM (active); in [2], 0.00104 µM (active); in [3], 0.000925 µM (active); in assay [4], 0.000621 µM; in assay [5], 0.000637 µM (active); in [7] it was 0.000309 µM (active). Moreover, the GI50 in assay [8] was 0.00434 µM (active); in assay [9] it was < 0.0001 µM (active); in assay [17], 0.368 µM (active); in assay [10], 0.00126 µM (active); in assay [11] it was 0.00044 µM (active); in assay [12], 0.757 µM (active). Besides, the GI50 in assay [14] was < 0.0001 µM (active); in assay [15], 0.00436 µM (active); in [19], 0.000188 µM (active); in assay [16], < 0.0001 µM (active); in assay [18], < 0.0001 µM (active).

For the molecule `CC1=C(SCc2ccccc2)C(=O)c2ccccc2C1=O`, the GI50 in [1] was 19.7 µM (inactive); in assay [2], 19.1 µM (inactive); in assay [3], 26.7 µM (inactive); in [4], 18.5 µM; in [5], 30.3 µM (inactive); in assay [6] it was 12 µM (inactive). In addition, the GI50 was 14.2 µM (inactive) in assay [8]; 14.6 µM (inactive) in [9]; 21.7 µM (inactive) in [10]; 10.5 µM (inactive) in assay [11]; 13.9 µM (inactive) in assay [12]; 14.8 µM (inactive) in assay [13]. The GI50 in assay [14] was 14.4 µM (inactive); in assay [15], 17.8 µM (inactive); in assay [19] it was 13.4 µM (inactive); in assay [16], 19.9 µM (inactive); in assay [18] it was 15.8 µM (inactive).

Regarding `CN(C)CCNC(=O)Cn1ccc(=O)c2cc([N+](=O)[O-])ccc21`, the GI50 in [1] was > 100 µM (inactive); in [2], > 100 µM (inactive); in assay [3] it was > 100 µM (inactive); in [4], over 100 µM; in assay [5], > 100 µM (inactive); in [6] it was > 100 µM (inactive). Further, the GI50 in assay [7], in assay [8], in [9], in [17], in assay [10] and in assay [11] was > 100 µM (inactive) each time. Moreover, the GI50 in assay [13], in [14], in [15], in [16] and in [18] was > 100 µM (inactive) each time.

On to `Fc1cccc(F)c1C1SCC2=Nc3ccccc3CN21` (centres undefined), for which the GI50 is > 100 µM (inactive) in [1]; 79.6 µM (inactive) in assay [2]; > 100 µM (inactive) in assay [3]; over 100 µM in assay [4]; 42.5 µM (inactive) in [6]; 91.2 µM (inactive) in [7]. Moreover, the GI50 in assay [8] is 35 µM (inactive); in assay [9], > 100 µM (inactive); in assay [10] it was 22.4 µM (inactive); in assay [11], 19 µM (inactive); in [12], > 100 µM (inactive); in assay [13] it was 26.7 µM (inactive). Further, the GI50 in assay [14] was 31.4 µM (inactive); in assay [15], > 100 µM (inactive); in [19], 18.7 µM (inactive); in assay [16], > 100 µM (inactive); in assay [18], 41 µM (inactive).

For the molecule `CN(C)/C=C1\CCc2ccc([N+](=O)[O-])cc2C1=O`, the GI50 was 25.5 µM (inactive) in [1]; > 100 µM (inactive) in assay [2]; 70.8 µM (inactive) in assay [3]; 44 µM in [4]; 24.3 µM (inactive) in assay [5]; > 100 µM (inactive) in assay [6]. Also, the GI50 is 89.9 µM (inactive) in assay [7]; 26 µM (inactive) in assay [8]; 19.1 µM (inactive) in assay [9]; > 100 µM (inactive) in [17]; 75 µM (inactive) in [10]; 18.3 µM (inactive) in [11]. Moreover, the GI50 in assay [12] was 17.9 µM (inactive); in assay [14] it was 92.9 µM (inactive); in assay [15], 18.3 µM (inactive); in assay [19] it was > 100 µM (inactive); in assay [16] it was 32.1 µM (inactive); in assay [18], 24.5 µM (inactive).

Turning to `NC(=O)SCC(=O)Nc1ccc2cccc3c2c1CC3`, the GI50 in assay [1] is > 100 µM (inactive); in assay [2], > 100 µM (inactive); in [3], 62.1 µM (inactive); in assay [4], 16.6 µM; in assay [5] it was 29.7 µM (inactive); in assay [6] it was > 100 µM (inactive). Further, the GI50 in assay [7] is 21.8 µM (inactive); in assay [8], 11 µM (inactive); in assay [9], 17.4 µM (inactive); in assay [10], 42.6 µM (inactive); in [11] it was 31.6 µM (inactive); in assay [12], 17.3 µM (inactive). Also, the GI50 in [13] was 15.1 µM (inactive); in [14] it was 26.8 µM (inactive); in [15], 21.5 µM (inactive); in assay [19] it was 96.6 µM (inactive); in assay [16], 12.2 µM (inactive); in [18], 13.7 µM (inactive).

In the case of `OC1CCC(COC(c2ccccc2)(c2ccccc2)c2ccccc2)O1` (centres undefined), the GI50 in [1] is 17.1 µM (inactive); in [2] it was > 10 µM (inactive); in [3], 16.4 µM (inactive); in [4] it was 16.9 µM; in [5], 18.3 µM (inactive); in assay [6], 18.2 µM (inactive). In addition, the GI50 was 18.7 µM (inactive) in assay [7]; 17.1 µM (inactive) in assay [8]; 21.5 µM (inactive) in assay [9]; 24.2 µM (inactive) in [17]; 17.7 µM (inactive) in assay [10]; 18.4 µM (inactive) in [11]. Further, the GI50 in assay [13] is 17.3 µM (inactive); in assay [14], 16.9 µM (inactive); in assay [15], 19.2 µM (inactive); in [19], 13.4 µM (inactive); in [16], 17.5 µM (inactive); in [18] it was 17.2 µM (inactive).

With `COC(=O)c1ccc(OCc2ccc3nc(-c4ccccc4)c(Cl)nc3c2)cc1`, the GI50 was 76.2 µM (inactive) in [1]; > 100 µM (inactive) in assay [2]; > 100 µM (inactive) in [3]; over 100 µM in assay [4]; > 100 µM (inactive) in assay [5]; 85.5 µM (inactive) in assay [6]. The GI50 in assay [7] is > 100 µM (inactive); in assay [8], > 100 µM (inactive); in assay [9], 74.8 µM (inactive); in assay [10] it was 65.2 µM (inactive); in assay [11], > 100 µM (inactive); in assay [12] it was 62.1 µM (inactive). Also, the GI50 was 33.1 µM (inactive) in assay [13]; 76.6 µM (inactive) in assay [14]; > 100 µM (inactive) in [15]; 22.9 µM (inactive) in assay [19]; > 100 µM (inactive) in assay [16]; > 100 µM (inactive) in assay [18].

In the case of `CC1C2(C)OC(=N)C(C#N)(C(c3ccccc3)O2)C1(C#N)C#N` (centres undefined), the GI50 in assay [1] is 16.4 µM (inactive); in assay [2], 21.4 µM (inactive); in [3], 10.8 µM (inactive); in assay [4] it was 10.9 µM; in assay [5], 18.1 µM (inactive); in assay [6] it was 33.8 µM (inactive). In addition, the GI50 in assay [7] was 13.9 µM (inactive); in assay [8] it was 21.2 µM (inactive); in [9] it was 33.3 µM (inactive); in assay [17] it was > 100 µM (inactive); in assay [10] it was 42.9 µM (inactive); in [11], 15.1 µM (inactive). Further, the GI50 in [13] is 20.3 µM (inactive); in assay [14], 16.7 µM (inactive); in assay [15] it was 16.6 µM (inactive); in [19], > 100 µM (inactive); in [16], > 10 µM (inactive); in assay [18], 24.4 µM (inactive).

As to `N/C(COc1ccc(Cl)cc1)=N\NC(=O)c1ccncc1`, the GI50 is > 100 µM (inactive) in assay [1]; 76.2 µM (inactive) in assay [2]; > 100 µM (inactive) in [3]; 55.6 µM in [4]; > 100 µM (inactive) in [5]; > 100 µM (inactive) in assay [6]. Further, the GI50 in [7] was > 100 µM (inactive); in [8], > 100 µM (inactive); in assay [9], > 100 µM (inactive); in assay [10] it was 49.9 µM (inactive); in assay [11], > 100 µM (inactive); in assay [12] it was > 100 µM (inactive). Besides, the GI50 is > 100 µM (inactive) in [13]; > 100 µM (inactive) in [15]; 30.3 µM (inactive) in assay [19]; > 100 µM (inactive) in assay [16]; > 100 µM (inactive) in [18].
